Read-outs that look alike come from different tables or passages of the source.
Experiments:
human hepatocytes = experiment: Hepatocyte stability (parent disappearance in cryopreserved hepatocytes); type: in vitro ADME
Experimental: The hepatocyte assay was used to evaluate the metabolic stability of test articles (TA) following incubation in cryopreserved hepatocytes by monitoring parent drug disappearance via […]. The TA with 1% final DMSO concentration was incubated with 0.5 million hepatocytes/ml at 1 μM substrate in duplicate. The incubation was carried out at 37° C. with 5% CO2 and saturating humidity. Samples were taken at 0, 1, 2, and 3 hours to monitor the disappearance of TA and a half-life (t ½) was determined. Table 2 below summarizes the t½ values (e.g. t ½) collected from this Example.

[1] = PK profiles after iv and PO dosing in rats; type: in vivo; conditions: oral dose 10 mg/kg, SD rats, vs idelalisib
Experimental: Compound 2 was dosed by both iv and PO in the rats.

[2] = cited from earlier work
[3] = IV; data from idelalisib NDA filing; cited from earlier work

Compound: C[C@H](Nc1nc(N)nc(N)c1C#N)c1cc2ccc(F)cc2nc1-c1ccccc1 [Compound 1, (S)-2,4-diamino-6-[1-(7-fluoro-2-phenyl-quinolin-3-yl)-ethylamino]-pyrimidine-5-carbonitrile]
- improved stability in human hepatocytes (longer half-life) than compound D (human hepatocytes; fold vs compound D): 2.7 ×

Compound: C[C@H](Nc1nc(N)nc(N)c1C#N)c1cc2ccc(F)cc2nc1-c1ccccc1S(C)(=O)=O (stereo in doubt) [Compound 4, (S)-2,4-Diamino-6-{1-[7-fluoro-2-(2-methanesulfonyl-phenyl)-quinoli-n-3-yl]-ethylamino}-pyrimidine-5-carbonitrile]
- improved stability in human hepatocytes (longer half-life) than compound E (human hepatocytes; fold vs compound E): 1.3 ×

Compound: C[C@H](Nc1nc(N)nc(N)c1C#N)c1cc2ccc(F)cc2nc1-c1ccccn1 (stereo in doubt) [Compound 2, (S)-2,4-Diamino-6-[1-(7-fluoro-2-pyridin-2-yl-quinolin-3-yl)-ethyla-mino]-pyrimidine-5-carbonitrile]
- Oral exposure corrected with dose (AUCinf/dose) higher than that of idelalisib [1]: 20 fold

Compound: CC[C@H](Nc1ncnc2[nH]cnc12)c1nc2cccc(F)c2c(=O)n1-c1ccccc1 [Idelalisib, idelalisib]
- Fatal and/or serious hepatotoxicity, patients ([2]; idelalisib in combination trials): 11%
- Fatal and/or serious hepatotoxicity, patients ([2]; idelalisib monotherapy): 18%
- Tmax [3]: 3.6 min

Source: patent publication US11446301B2, “Quinoline analogs as phosphatidylinositol 3-kinase inhibitors” (NANJING ZHENGXIANG PHARMACEUTICALS CO., LTD., priority 2016, dated 2022)
